Experimental findings from article PMC12362783 (Advanced Science, 2025) are described below.

The term IC50 denotes the concentration that gives 50% inhibition.

One experiment concerns the target T1, ATR (Homo sapiens, UniProt Q13535).
T1 construct: purchased Eurofins 14-953
In words: ATR kinase inhibition, Mobility Shift Assay. The experiment is classed as biochemical. Conditions: for IC50: n = 3, mean ± SD. The procedure: The in vitro ATR kinase inhibitory activities were determined by ChemPartner Co., Ltd. (Shanghai, China) using the Mobility Shift Assay. The tested compound was dissolved with DMSO and diluted to 1000/3 × of the final desired highest inhibitor concentration in the reaction. […] The assay wells were incubated at 28 °C for 4 h.

In a further experiment the test system is MDA‐MB‐468. Description: Cell growth inhibition, CellTiter‐Glo (CTG). It counts as cell-based. Conditions: Homo sapiens, MDA-MB-468, 120 h; CTG, 5 days, n = 3. How it is done:
(§1) All cells were grown in a humidified incubator at 37 °C and 5% CO2.
(§2) […] […] Relative viability was calculated by normalizing the raw luminescence counts of the treated groups to those of the DMSO control groups. IC₅₀ values were calculated using sigmoidal dose‐response curve fitting with GraphPad Prism 9.0 software.

The subject of another experiment is MDA‐MB‐231. Description: Cell growth inhibition, CellTiter‐Glo (CTG). It counts as cell-based. Conditions: Homo sapiens, MDA-MB-231, 120 h, read-out: IC50 MDA‐MB‐231; CTG, 5 days, n = 3. The procedure:
as §1, §2

Experiment [1] has as its system TNBC cells (MDA‐MB‐231, MDA‐MB‐468, MDA‐MB‐436). Description: Anti‐proliferative activity across three TNBC cell lines (summary). It counts as cell-based. The procedure: Cells were grown at 37 °C, under 95% air and 5% CO₂ until they reached about 70% confluence and were subcultured at least twice before the experiment. Cells were seeded at a density of 1000 cells/well in two 384‐well white plates, and the plates were placed in a 5% CO₂ incubator overnight. Growth viability was determined by the CellTiter‐Glo luminescent viability assay (Promega) 5 days after drug treatment. Cell viability was measured immediately after dosing (Day 0) and after 5 days of incubation using CellTiter‐Glo (CTG, Promega, G7573). Relative viability was calculated by normalizing the raw luminescence counts of the treated groups to those of the DMSO control groups. IC₅₀ values were calculated using sigmoidal dose‐response curve fitting with GraphPad Prism 9.0 software.

In another experiment the test system is MDA‐MB‐436. In words: Cell growth inhibition, CellTiter‐Glo (CTG). The experiment is classed as cell-based. As to conditions: Homo sapiens; for IC50: MDA-MB-436, 120 h, CTG, 5 days, n = 3; for inhibition at 5 µM: MDA-MB-436, read-out: MDA‐MB‐436 inhibitory rate at certain concentration. How it is done: as §1
Growth viability was determined by the CellTiter‐Glo luminescent viability assay (Promega) 5 days after drug treatment. Cell viability was measured immediately after dosing (Day 0) and after 5 days of incubation using CellTiter‐Glo (CTG, Promega, G7573). Relative viability was calculated by normalizing the raw luminescence counts of the treated groups to those of the DMSO control groups. IC₅₀ values were calculated using sigmoidal dose‐response curve fitting with GraphPad Prism 9.0 software.

Another experiment has as its target PARP1 (Homo sapiens, UniProt P09874). Description: PARP enzymatic inhibition ELISA (PARP1). It counts as biochemical. As to conditions: for IC50: n = 3, mean ± SD. The procedure: The PARP activity assay was performed by ChemPartner (Shanghai, China). Each well was precoated with histone (final conc.: 100 ng mL^−1) diluted in PBS buffer (contains 10 mmol L^−1 NaH2PO4 and 150 mmol L^−1 NaCl, pH 7.4) by incubation at 4 °C overnight. […] The reaction was initiated by the addition of 10 µL of PARP (final conc.: 0.007 nM/well) at room temperature for 60 min. Add 20 µL of anti‐Poly/Mono‐ADP Ribose Rabbit mAb. Incubate for 1.5 h at room temperature and wash the plate three times using PBST buffer. […] Incubate for 1 h at room temperature and wash the plate three times using PBST buffer. Add 25 µL Femto‐ECL Substrate A and Femto‐ECL Substrate B (1:1) mix. Immediately read chemiluminescence on Envision (Revvity, USA).

Bounds are passed on as bounds.

T1 sequence (Q13535 whole entry): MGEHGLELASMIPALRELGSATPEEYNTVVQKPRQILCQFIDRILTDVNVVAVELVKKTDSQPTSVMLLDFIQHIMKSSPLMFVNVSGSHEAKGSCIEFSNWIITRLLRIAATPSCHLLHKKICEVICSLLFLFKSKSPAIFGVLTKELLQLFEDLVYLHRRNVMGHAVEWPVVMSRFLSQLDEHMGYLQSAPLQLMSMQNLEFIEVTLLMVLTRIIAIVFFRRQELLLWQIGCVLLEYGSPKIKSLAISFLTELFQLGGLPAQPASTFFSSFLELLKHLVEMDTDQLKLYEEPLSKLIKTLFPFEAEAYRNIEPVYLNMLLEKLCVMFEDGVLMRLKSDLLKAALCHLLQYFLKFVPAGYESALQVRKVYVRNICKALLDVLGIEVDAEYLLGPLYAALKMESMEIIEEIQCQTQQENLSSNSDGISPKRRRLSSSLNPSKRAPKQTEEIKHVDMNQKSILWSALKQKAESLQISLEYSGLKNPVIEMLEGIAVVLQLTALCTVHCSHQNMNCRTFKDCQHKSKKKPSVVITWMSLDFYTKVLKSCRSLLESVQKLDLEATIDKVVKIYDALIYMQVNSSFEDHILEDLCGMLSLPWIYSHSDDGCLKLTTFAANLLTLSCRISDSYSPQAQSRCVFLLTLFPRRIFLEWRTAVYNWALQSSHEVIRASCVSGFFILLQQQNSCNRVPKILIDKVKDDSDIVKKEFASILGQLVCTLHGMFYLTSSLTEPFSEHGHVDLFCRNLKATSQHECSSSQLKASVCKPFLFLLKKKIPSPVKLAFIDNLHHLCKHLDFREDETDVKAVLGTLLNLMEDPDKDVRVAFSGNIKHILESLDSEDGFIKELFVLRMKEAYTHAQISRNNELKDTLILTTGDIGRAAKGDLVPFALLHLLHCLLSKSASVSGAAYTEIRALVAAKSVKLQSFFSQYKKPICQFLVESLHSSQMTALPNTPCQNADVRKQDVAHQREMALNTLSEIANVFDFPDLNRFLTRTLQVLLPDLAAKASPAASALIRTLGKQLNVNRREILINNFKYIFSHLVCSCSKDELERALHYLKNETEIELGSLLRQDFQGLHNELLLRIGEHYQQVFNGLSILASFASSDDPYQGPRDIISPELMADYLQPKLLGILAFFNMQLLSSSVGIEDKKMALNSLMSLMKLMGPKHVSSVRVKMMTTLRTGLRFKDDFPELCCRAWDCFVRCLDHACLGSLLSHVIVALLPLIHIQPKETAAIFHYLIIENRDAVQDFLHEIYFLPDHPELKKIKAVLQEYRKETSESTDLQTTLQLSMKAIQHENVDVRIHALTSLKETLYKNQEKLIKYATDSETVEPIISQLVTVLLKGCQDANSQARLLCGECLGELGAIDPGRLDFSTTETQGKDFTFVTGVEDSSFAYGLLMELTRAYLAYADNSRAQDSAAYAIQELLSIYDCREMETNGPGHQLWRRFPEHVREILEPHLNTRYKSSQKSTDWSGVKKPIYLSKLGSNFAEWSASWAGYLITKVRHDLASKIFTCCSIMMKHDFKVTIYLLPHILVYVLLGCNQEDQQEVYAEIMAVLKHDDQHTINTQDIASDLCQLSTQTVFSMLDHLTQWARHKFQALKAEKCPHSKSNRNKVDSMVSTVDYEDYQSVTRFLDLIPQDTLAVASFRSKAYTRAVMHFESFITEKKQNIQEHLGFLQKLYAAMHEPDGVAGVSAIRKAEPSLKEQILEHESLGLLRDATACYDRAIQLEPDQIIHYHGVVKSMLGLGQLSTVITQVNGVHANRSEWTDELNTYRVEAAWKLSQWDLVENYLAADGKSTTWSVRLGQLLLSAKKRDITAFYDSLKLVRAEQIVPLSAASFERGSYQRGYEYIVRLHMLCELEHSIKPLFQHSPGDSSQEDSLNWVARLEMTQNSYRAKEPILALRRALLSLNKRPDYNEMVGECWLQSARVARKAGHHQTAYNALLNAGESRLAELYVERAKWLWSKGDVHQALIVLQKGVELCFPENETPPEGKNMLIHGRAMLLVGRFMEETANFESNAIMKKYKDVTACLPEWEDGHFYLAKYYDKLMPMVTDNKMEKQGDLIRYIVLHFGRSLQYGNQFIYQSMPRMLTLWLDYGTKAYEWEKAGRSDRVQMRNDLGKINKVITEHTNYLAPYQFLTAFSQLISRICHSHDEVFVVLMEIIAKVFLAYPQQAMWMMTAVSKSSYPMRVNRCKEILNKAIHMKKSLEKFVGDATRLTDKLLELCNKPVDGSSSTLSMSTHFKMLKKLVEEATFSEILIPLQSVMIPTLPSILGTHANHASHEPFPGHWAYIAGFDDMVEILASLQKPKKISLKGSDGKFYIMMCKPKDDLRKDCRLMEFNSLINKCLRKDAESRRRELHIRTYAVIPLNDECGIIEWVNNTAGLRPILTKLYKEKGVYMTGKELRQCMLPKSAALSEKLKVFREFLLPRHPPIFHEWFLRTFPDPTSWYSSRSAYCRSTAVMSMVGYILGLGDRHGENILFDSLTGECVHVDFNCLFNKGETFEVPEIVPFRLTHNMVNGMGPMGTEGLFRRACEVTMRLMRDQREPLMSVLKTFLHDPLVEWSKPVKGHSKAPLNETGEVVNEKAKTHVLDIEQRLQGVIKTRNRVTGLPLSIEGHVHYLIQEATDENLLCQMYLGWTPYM
T1 sequence (Q8WXE1 whole entry partner): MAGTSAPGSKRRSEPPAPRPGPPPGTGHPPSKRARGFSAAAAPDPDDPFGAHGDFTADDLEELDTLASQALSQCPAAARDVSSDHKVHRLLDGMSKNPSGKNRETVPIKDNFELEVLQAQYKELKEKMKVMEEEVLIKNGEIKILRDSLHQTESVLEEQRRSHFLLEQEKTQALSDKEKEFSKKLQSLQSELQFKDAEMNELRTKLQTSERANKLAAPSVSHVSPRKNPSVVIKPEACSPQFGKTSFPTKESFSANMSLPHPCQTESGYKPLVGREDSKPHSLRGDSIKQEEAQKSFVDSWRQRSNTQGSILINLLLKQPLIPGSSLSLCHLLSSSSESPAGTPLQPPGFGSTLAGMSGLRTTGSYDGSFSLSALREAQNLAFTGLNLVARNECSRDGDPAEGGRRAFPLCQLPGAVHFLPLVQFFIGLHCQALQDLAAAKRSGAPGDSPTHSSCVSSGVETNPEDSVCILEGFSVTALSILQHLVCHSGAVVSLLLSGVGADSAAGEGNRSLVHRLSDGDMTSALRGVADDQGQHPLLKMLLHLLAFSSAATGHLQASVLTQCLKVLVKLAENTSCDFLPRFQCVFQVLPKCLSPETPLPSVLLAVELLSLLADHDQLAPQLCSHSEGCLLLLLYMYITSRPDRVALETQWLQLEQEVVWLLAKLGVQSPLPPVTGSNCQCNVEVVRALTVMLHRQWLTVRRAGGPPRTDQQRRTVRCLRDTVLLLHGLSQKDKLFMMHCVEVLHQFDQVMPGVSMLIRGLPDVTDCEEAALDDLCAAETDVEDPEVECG
Chain of PARP1 (P09874 whole entry): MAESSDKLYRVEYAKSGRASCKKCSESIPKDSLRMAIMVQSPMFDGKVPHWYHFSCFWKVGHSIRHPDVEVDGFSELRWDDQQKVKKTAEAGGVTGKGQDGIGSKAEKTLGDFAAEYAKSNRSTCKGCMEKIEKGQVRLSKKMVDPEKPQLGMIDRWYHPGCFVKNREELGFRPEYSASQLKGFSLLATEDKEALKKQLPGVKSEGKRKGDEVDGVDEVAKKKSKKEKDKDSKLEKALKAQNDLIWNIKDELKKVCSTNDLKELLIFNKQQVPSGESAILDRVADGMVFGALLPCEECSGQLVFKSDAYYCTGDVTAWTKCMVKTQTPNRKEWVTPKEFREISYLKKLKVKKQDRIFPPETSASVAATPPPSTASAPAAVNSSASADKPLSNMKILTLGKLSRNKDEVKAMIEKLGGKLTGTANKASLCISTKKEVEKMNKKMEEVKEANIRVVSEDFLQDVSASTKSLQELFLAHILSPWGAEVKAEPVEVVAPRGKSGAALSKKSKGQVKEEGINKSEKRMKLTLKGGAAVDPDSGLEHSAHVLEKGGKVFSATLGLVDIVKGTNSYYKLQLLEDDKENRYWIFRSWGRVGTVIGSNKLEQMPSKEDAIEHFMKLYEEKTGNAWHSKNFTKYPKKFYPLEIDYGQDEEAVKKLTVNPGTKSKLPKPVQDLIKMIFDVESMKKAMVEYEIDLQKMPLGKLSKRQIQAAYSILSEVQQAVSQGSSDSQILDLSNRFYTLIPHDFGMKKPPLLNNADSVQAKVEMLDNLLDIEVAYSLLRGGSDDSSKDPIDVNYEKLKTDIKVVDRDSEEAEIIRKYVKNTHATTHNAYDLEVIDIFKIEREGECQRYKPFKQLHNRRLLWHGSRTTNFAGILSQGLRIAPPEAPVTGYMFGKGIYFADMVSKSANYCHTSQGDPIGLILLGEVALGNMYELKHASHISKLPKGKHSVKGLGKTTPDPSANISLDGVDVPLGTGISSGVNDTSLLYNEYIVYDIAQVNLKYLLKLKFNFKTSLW

Consider `C[C@@H]1COCCN1c1cc(CNC(=O)c2cc(Cc3n[nH]c(=O)c4ccccc34)ccc2F)nc(-c2ccnc3[nH]ccc23)n1` [Compound B1, (R)‐2‐fluoro‐N‐((6‐(3‐methylmorpholino)‐2‐(1H‐pyrrolo[2,3‐b]pyridin‐4‐yl)pyrimidin‐4‐yl)methyl)‐5‐((4‐oxo‐3,4‐dihydrophthalazin‐1‐yl)methyl)benzamide], for which the “activity against ATR (SAR summary in words, Figure 7)” value at ATR was “moderate activity”. Besides, the IC50 at ATR came out at 39.5 ± 3.7 nM; in the experiment with MDA‐MB‐468, 7.88 ± 1.14 µM; in the experiment on MDA‐MB‐231, 3.05 ± 0.76 µM; in the experiment with MDA‐MB‐436, 910 ± 50 nM; at PARP1, 420 ± 31 nM. Further, in experiment [1], the “activity against TNBC cells (SAR summary in words, Figure 7)” value is reported as “weak activity”. Besides, on PARP1, the “activity against PARP1 (SAR summary in words, Figure 7)” value is given as “moderate activity”.

As for `C[C@@H]1COCCN1c1cc(CNC(=O)CCNC(=O)c2cc(Cc3n[nH]c(=O)c4ccccc34)ccc2F)nc(-c2ccnc3[nH]ccc23)n1` [Compound B3, (R)‐2‐fluoro‐N‐(3‐(((6‐(3‐methylmorpholino)‐2‐(1H‐pyrrolo[2,3‐b]pyridin‐4‐yl)pyrimidin‐4‐yl)methyl)amino)‐3‐oxopropyl)‐5‐((4‐oxo‐3,4‐dihydrophthalazin‐1‐yl)methyl)benzamide], the IC50 was determined as 347 ± 15.7 nM at ATR, 17.7 ± 0.53 µM in the experiment on MDA‐MB‐468, 14.3 ± 1.4 µM in the experiment with MDA‐MB‐231 and 9.5 ± 1.8 nM on PARP1. For the same molecule, in the experiment with MDA‐MB‐436, the inhibition at 5 µM stood at 34.9%.

Regarding `C[C@@H]1COCCN1c1cc(CNC(=O)CCCNC(=O)c2cc(Cc3n[nH]c(=O)c4ccccc34)ccc2F)nc(-c2ccnc3[nH]ccc23)n1` [Compound B4, (R)‐2‐fluoro‐N‐(4‐(((6‐(3‐methylmorpholino)‐2‐(1H‐pyrrolo[2,3‐b]pyridin‐4‐yl)pyrimidin‐4‐yl)methyl)amino)‐4‐oxobutyl)‐5‐((4‐oxo‐3,4‐dihydrophthalazin‐1‐yl)methyl)benzamide], the IC50 was 111 ± 8.1 nM on ATR, 6.83 ± 0.1 µM in the experiment on MDA‐MB‐468, 14.3 ± 3.91 µM in the experiment with MDA‐MB‐231 and 6.2 ± 0.9 nM against PARP1. For the same molecule, in the experiment on MDA‐MB‐436, the inhibition at 5 µM came out at 47%.

For the molecule `C[C@@H]1COCCN1c1cc(CNC(=O)CNC(=O)c2cc(Cc3n[nH]c(=O)c4ccccc34)ccc2F)nc(-c2ccnc3[nH]ccc23)n1` [Compound B2, (R)‐2‐fluoro‐N‐(2‐(((6‐(3‐methylmorpholino)‐2‐(1H‐pyrrolo[2,3‐b]pyridin‐4‐yl)pyrimidin‐4‐yl)methyl)amino)‐2‐oxoethyl)‐5‐((4‐oxo‐3,4‐dihydrophthalazin‐1‐yl)methyl)benzamide], the IC50 on ATR stood at 168 ± 7.8 nM; in the experiment with MDA‐MB‐468, 8.41 ± 0.61 µM; in the experiment on MDA‐MB‐231, 10.58 ± 0.01 µM; at PARP1, 16 ± 2.4 nM. Moreover, the inhibition at 5 µM in the experiment with MDA‐MB‐436 was 40.3%.

Regarding `C[C@@H]1COCCN1c1cc(CN)nc(-c2ccnc3[nH]ccc23)n1` [Compound 28], the results for the IC50 in the experiment on MDA‐MB‐468 and in the experiment with MDA‐MB‐231 were 40.8 ± 4.45 µM and more than 50 µM, respectively. Besides, the inhibition at 5 µM with MDA‐MB‐436 was 21.4%.

Take `C[C@@H]1COCCN1c1cc(C2(NC(=O)N3CCN(C(=O)c4cc(Cc5n[nH]c(=O)c6ccccc56)ccc4F)CC3)CC2)nc(-c2ccnc3[nH]ccc23)n1` [Compound A6, (R)‐4‐(2‐fluoro‐5‐((4‐oxo‐3,4‐dihydrophthalazin‐1‐yl)methyl)benzoyl)‐N‐(1‐(6‐(3‐methylmorpholino)‐2‐(1H‐pyrrolo[2,3‐b]pyridin‐4‐yl)pyrimidin‐4‐yl)cyclopropyll)piperazine‐1‐carboxamide]: the IC50 is more than 500 nM on ATR; 1.15 ± 0.01 µM with MDA‐MB‐468; 4.16 ± 1.09 µM in the experiment on MDA‐MB‐231; 590 ± 10 nM in the experiment on MDA‐MB‐436; 0.98 ± 0.88 nM against PARP1.

In the case of `C[C@@H]1COCCN1c1cc(CNC(=O)C2CCN(C(=O)c3cc(Cc4n[nH]c(=O)c5ccccc45)ccc3F)CC2)nc(-c2ccnc3[nH]ccc23)n1` [Compound B5, (R)‐1‐(2‐fluoro‐5‐((4‐oxo‐3,4‐dihydrophthalazin‐1‐yl)methyl)benzoyl)‐N‐((6‐(3‐methylmorpholino)‐2‐(1H‐pyrrolo[2,3‐b]pyridin‐4‐yl)pyrimidin‐4‐yl)methyl)piperidine‐4‐carboxamide], the IC50 on ATR came to 36.7 ± 4.6 nM; in the experiment with MDA‐MB‐468, 1.46 ± 0.1 µM; in the experiment on MDA‐MB‐231, 4.48 ± 1.08 µM; in the experiment on MDA‐MB‐436, 1190 ± 230 nM; at PARP1, 1.2 ± 0.3 nM.

Regarding `C[C@@H]1COCCN1c1cc(C2(NC(=O)C3CCN(C(=O)c4cc(Cc5n[nH]c(=O)c6ccccc56)ccc4F)CC3)CC2)nc(-c2ccnc3[nH]ccc23)n1` [Compound A5, (R)‐1‐(2‐fluoro‐5‐((4‐oxo‐3,4‐dihydrophthalazin‐1‐yl)methyl)benzoyl)‐N‐(1‐(6‐(3‐methylmorpholino)‐2‐(1H‐pyrrolo[2,3‐b]pyridin‐4‐yl)pyrimidin‐4‐yl)cyclopropyll)piperidine‐4‐carboxamide], the IC50 at ATR was 143 ± 11 nM; in the experiment with MDA‐MB‐468, 0.57 ± 0.08 µM; with MDA‐MB‐231, 3.63 ± 1.41 µM; with MDA‐MB‐436, 570 ± 40 nM; on PARP1, 1.08 ± 0.74 nM.

Turning to `C[C@@H]1COCCN1c1cc(C2(N)CC2)nc(-c2ccnc3[nH]ccc23)n1` [Compound 23], the IC50 in the experiment on MDA‐MB‐468 was more than 50 µM; in the experiment on MDA‐MB‐231 it was 40.7 ± 1.36 µM. In the experiment on MDA‐MB‐436, the inhibition at 5 µM came to 20.5%.

For `C[C@@H]1COCCN1c1cc(CNC(=O)N2CCN(C(=O)c3cc(Cc4n[nH]c(=O)c5ccccc45)ccc3F)CC2)nc(-c2ccnc3[nH]ccc23)n1` [Compound B7, (R)‐4‐(2‐fluoro‐5‐((4‐oxo‐3,4‐dihydrophthalazin‐1‐yl)methyl)benzoyl)‐N‐((6‐(3‐methylmorpholino)‐2‐(1H‐pyrrolo[2,3‐b]pyridin‐4‐yl)pyrimidin‐4‐yl)methyl)piperazine‐1‐carboxamide], the IC50 on ATR turned out to be 78.8 ± 6.2 nM; in the experiment with MDA‐MB‐468 it was 0.96 ± 0.04 µM; in the experiment with MDA‐MB‐231, 1.6 ± 0.09 µM; in the experiment on MDA‐MB‐436 it was 1290 ± 560 nM; against PARP1, 0.76 ± 0.09 nM.

Consider `C[C@@H]1COCCN1c1cc(C2(NC(=O)c3cc(Cc4n[nH]c(=O)c5ccccc45)ccc3F)CC2)nc(-c2ccnc3[nH]ccc23)n1` [Compound A1, (R)‐2‐fluoro‐N‐(1‐(6‐(3‐methylmorpholino)‐2‐(1H‐pyrrolo[2,3‐b]pyridin‐4‐yl)pyrimidin‐4‐yl)cyclopropyl)‐5‐((4‐oxo‐3,4‐dihydrophthalazin‐1‐yl)methyl)benzamide], for which the “activity against ATR (SAR summary in words, Figure 7)” value on ATR was “moderate activity”. For the same molecule, the IC50 on ATR was determined as 215 ± 22 nM; in the experiment with MDA‐MB‐468 it was 8.54 ± 1.07 µM; in the experiment with MDA‐MB‐231, 5.26 ± 1.14 µM; with MDA‐MB‐436 it was 2920 ± 2050 nM; against PARP1, 1150 ± 43 nM. In addition, in experiment [1], the “activity against TNBC cells (SAR summary in words, Figure 7)” value is “weak activity”. For the same molecule, at PARP1, the “activity against PARP1 (SAR summary in words, Figure 7)” value is recorded as “moderate activity”.

In the case of `C[C@@H]1COCCN1c1cc(CNS(=O)(=O)C2CCN(C(=O)c3cc(Cc4n[nH]c(=O)c5ccccc45)ccc3F)CC2)nc(-c2ccnc3[nH]ccc23)n1` [Compound B6, (R)‐1‐(2‐fluoro‐5‐((4‐oxo‐3,4‐dihydrophthalazin‐1‐yl)methyl)benzoyl)‐N‐((6‐(3‐methylmorpholino)‐2‐(1H‐pyrrolo[2,3‐b]pyridin‐4‐yl)pyrimidin‐4‐yl)methyl)piperidine‐4‐sulfonamide], the IC50 at ATR came to 112 ± 5.3 nM; in the experiment on MDA‐MB‐468, 0.7 ± 0.07 µM; in the experiment with MDA‐MB‐231, 3.96 ± 2.05 µM; in the experiment on MDA‐MB‐436 it was 780 ± 80 nM; at PARP1 it was 0.46 ± 0.1 nM.
